Experimental data reported in patent US20210317092A1 (BAYER PHARMA AKTIENGESELLSCHAFT, priority 2016, published 2021).
Like-named read-outs stand apart in the source and are kept apart here.

Key:
[1] = target: T1, human Bradykinin B1 receptor (Homo sapiens, UniProt P46663); assay: Calcium flux Assay (FLIPR) with recombinant CHO-K1 cells expressing human Bradykinin B1 receptor, in presence (hB1 IC50) or absence (hB1 free IC50) of 0.1% BSA; type: cell-based
T1 construct: host or cells: CHO-K1
T1 sequence (P46663 1-353): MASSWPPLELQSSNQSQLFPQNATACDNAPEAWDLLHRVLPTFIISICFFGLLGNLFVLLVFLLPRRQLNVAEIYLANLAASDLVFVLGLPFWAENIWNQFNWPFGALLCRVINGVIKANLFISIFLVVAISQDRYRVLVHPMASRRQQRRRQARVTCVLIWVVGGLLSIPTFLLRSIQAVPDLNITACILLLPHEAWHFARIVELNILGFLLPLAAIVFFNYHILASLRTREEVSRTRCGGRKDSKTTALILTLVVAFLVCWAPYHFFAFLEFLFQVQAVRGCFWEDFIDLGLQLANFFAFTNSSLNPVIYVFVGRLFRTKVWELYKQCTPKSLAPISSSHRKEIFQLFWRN

[2] = target: T2, native human Bradykinin B1 receptor (Homo sapiens, UniProt P46663); assay: Calcium flux Assay (FLIPR) with human fibroblasts expressing Bradykinin B1 receptor (hB1 IMR-90); type: cell-based; conditions: IMR-90 human fibroblasts expressing native Bradykinin B1 receptor
T2 construct: which express native human Bradykinin B1 receptor after induction with human IL-10; Coriell Institute; host or cells: IMR-90 human foetal lung fibroblasts, cytokine-induced
T2 sequence (P46663 1-353): T1 sequence (P46663 1-353)
Method: Calcium flux Assay (FLIPR) with human fibroblasts expressing Bradykinin B1 receptor (hB1 IMR-90)
The Calcium flux Assay was carried out utilising IMR-90 human foetal lung fibroblasts (American Type Culture Collection, Rockville, Md.; and Coriell Institute, Camden, N.J.), which express native human Bradykinin B1 receptor after induction with human […].
The fibroblasts were cultured in complete growth media comprised of Dulbecco's modified Eagle's medium (DMEM; Sigma) containing 10% foetal bovine serum, 4 mM L-glutamine, and 1% nonessential amino acids. The cells were maintained in a humidified atmosphere with 5% CO2 at 37° C. and were sub-cultured at a ratio of 1:3, every other day.
For the assay, IMR-90 fibroblasts were harvested using TrypLE Express (GIBCO/Invitrogen) and seeded into 384-well plates (Corning Cellbinding Surface, Cat. 3683) at a density of 15000 cells/well. The following day, cells were treated with 0.35 ng/mL human […] in 10% FBS/MEM for 3h to up-regulate Bradykinin B1 receptor. Induced cells were loaded with fluorescent calcium indicator by incubation with 2.5 μM Fluo-4/AM (Invitrogen) at 37° C., 5% CO2 for 2 h in the presence of 2.5 mM probenecid in 1% FBS/MEM. Extracellular dye was removed by washing with assay buffer (2.5 mM probenecid and 0.1% BSA in 20 mM HEPES/HBSS without bicarbonate or phenol red, pH 7.5). Compound examples were assayed at 8 concentrations in triplicate. After addition of compound examples to the cell plate and incubation for 30 min at 28° C., the addition of Bradykinin B1 agonist Lys-(Des-Arg)-Bradykinin (Bachem, Brackley) at a final concentration of EC90 was carried out on the FLIPR instrument while continuously monitoring Ca^2+-dependent fluorescence at 538 nm. A peptide antagonist Lys-(Des-Arg-Leu)-Bradykinin (Bachem, Brackley) at 20 µM was used to determine the full inhibition as control. IC50 values were determined by the same way described for the FLIPR assay with recombinant cells.

[3] = in absence of 0.1% BSA, read-out: hB1 free IC50
[4] = in presence of 0.1% BSA, read-out: hB1 IC50

SMILES	IC50 [1, 3] [nM]	IC50 [1, 4] [nM]	IC50 [2] [nM]
CCOc1ccc(-c2ccc(NC(=O)C3(c4ccc(F)cc4F)CC3)cc2-c2nnn[nH]2)cn1 [Example 101, 1-(2,4-difluorophenyl)-N-[4-(6-ethoxypyridin-3-yl)-3-(1H-tetrazol-5-yl)phenyl] cyclopropane-carboxamide]	24.5	38.7	22.1
CCOc1ccc(-c2ccc(NC(=O)C3(c4ccc(F)c(C)c4)CC3)cc2-c2nnn[nH]2)cn1 [Example 102, N-[4-(6-ethoxypyridin-3-yl)-3-(1H-tetrazol-5-yl]phenyl]-1-(4-fluoro-3-methylphenyl) cyclopropane-carboxamide]	–	34.8	21
CCOc1ccc(-c2ccc(NC(=O)C3(c4ccc(C(F)(F)F)cc4)CC3)cc2-c2nnn[nH]2)cn1 [Example 105, N-[4-(6-ethoxypyridin-3-yl)-3-(1H-tetrazol-5-yl)phenyl]-1-[4-(trifluoromethyl)phenyl] cyclopropane-carboxamide]	4.54	10.9	10.7
CCCOc1ccc(-c2ccc(NC(=O)C3(c4cccc(Cl)c4)CC3)cc2-c2nnn[nH]2)cn1 [Example 110, 1-(3-chlorophenyl)-N-[4-(6-propoxypyridin-3-yl)-3-(1H-tetrazol-5-yl)phenyl] cyclopropane-carboxamide]	5.68	12.7	11
CCCOc1ccc(-c2ccc(NC(=O)C3(c4ccc(C(F)(F)F)cc4)CC3)cc2-c2nnn[nH]2)cn1 [Example 111, N-[4-(6-propoxypyridin-3-yl)-3-(1H-tetrazol-5-yl)phenyl]-1-[4-(trifluoromethyl)phenyl] cyclopropane-carboxamide]	4.98	16.6	10.6
CCCOc1ccc(-c2ccc(NC(=O)C3(c4ccc(F)cc4F)CC3)cc2-c2nnn[nH]2)cn1 [Example 112, 1-(2,4-difluorophenyl)-N-[4-(6-propoxypyridin-3-yl)-3-(1H-tetrazol-5-yl)phenyl] cyclopropane-carboxamide]	16.2	44.9	20.4
CCOc1ccc(-c2ccc(NC(=O)C3(c4cccc(Cl)c4)CC3)cc2-c2nnn[nH]2)cc1OC [Example 119, 1-(3-chlorophenyl)-N-[4′-ethoxy-3′-methoxy-2-(1H-tetrazol-5-yl)biphenyl-4-yl]cyclopropane carboxamide]	2.88	22.7	13.1
CCOc1ccc(-c2ccc(NC(=O)C3(c4cccc(C(F)(F)F)c4)CC3)cc2-c2nnn[nH]2)cc1OC [Example 120, N-[4′-ethoxy-3′-methoxy-2-(1H-tetrazol-5-yl)biphenyl-4-yl]-1-[3-(trifluoromethyl)phenyl] cyclopropane-carboxamide]	–	30.6	25.1
CCOc1ccc(-c2ccc(NC(=O)C3(c4ccc(C(F)(F)F)cc4)CC3)cc2-c2nnn[nH]2)cc1OC [Example 121]	–	28.2	19.4
CCOc1ccc(-c2ccc(NC(=O)C3(c4ccc(F)cc4F)CC3)cc2-c2nnn[nH]2)cc1OC [Example 122, 1-(2,4-difluorophenyl)-N-[4′-ethoxy-3′-methoxy-2-(1H-tetrazol-5-yl)biphenyl-4-yl]cyclopropane carboxamide]	–	56.5	28.7
COCc1ccc(-c2ccc(NC(=O)C3(c4cccc(Cl)c4)CC3)cc2-c2nnn[nH]2)cn1 [Example 125, 1-(3-chlorophenyl)-N-{4-[6-(methoxymethyl)pyridin-3-yl]-3-(1H-tetrazol-5-yl)phenyl} cyclopropane-carboxamide]	23.3	13.8	26
COCc1ccc(-c2ccc(NC(=O)C3(c4ccc(C(F)(F)F)cc4)CC3)cc2-c2nnn[nH]2)cn1 [Example 126, N-{4-[6-(methoxymethyl)pyridin-3-yl]-3-(1H-tetrazol-5-yl)phenyl}-1-[4-(trifluoromethyl)phenyl] cyclopropane-carboxamide]	–	21.9	13.1
COCc1ccc(-c2ccc(NC(=O)C3(c4ccc(F)cc4F)CC3)cc2-c2nnn[nH]2)cn1 [Example 127, 1-(2,4-difluorophenyl)-N-{4-[6-(methoxymethyl)pyridin-3-yl]-3-(1H-tetrazol-5-yl)phenyl} cyclopropane-carboxamide]	88.6	90.9	27.9
O=C(Nc1ccc(-c2ccc(C(F)(F)F)cc2)c(-c2nnn[nH]2)c1)C1(c2cccc(Cl)c2)CC1 [Example 128, 1-(3-chlorophenyl)-N-[2-(1H-tetrazol-5-yl)-4′-(trifluoromethyl)biphenyl-4-yl]cyclopropane carboxamide]	2.68	137	63.3
O=C(Nc1ccc(-c2ccc(C(F)(F)F)nc2)c(-c2nnn[nH]2)c1)C1(c2cccc(Cl)c2)CC1 [Example 135, 1-(3-chlorophenyl)-N-{3-(1H-tetrazol-5-yl)-4-[6-(trifluoromethyl)pyridin-3-yl]phenyl} cyclopropane-carboxamide]	58.7	516	91.8
O=C(Nc1ccc(-c2ccc(C(F)(F)F)nc2)c(-c2nnn[nH]2)c1)C1(c2ccc(OC(F)(F)F)cc2)CC1 [Example 136, N-{3-(1H-tetrazol-5-yl)-4-[6-(trifluoromethyl)pyridin-3-yl]phenyl}-1-[4-(trifluoromethoxy)phenyl] cyclopropane-carboxamide]	165	–	15.7
O=C(Nc1ccc(-c2ccc(C(F)(F)F)nc2)c(-c2nnn[nH]2)c1)C1(c2ccc(Cl)c(F)c2)CC1 [Example 137, 1-(4-Chloro-3-fluorophenyl)-N-{3-(1H-tetrazol-5-yl)-4-[6-(trifluoromethyl)pyridin-3-yl]phenyl} cyclopropane-carboxamide]	17.1	–	43.9
O=C(Nc1ccc(-c2ccc(C(F)(F)F)nc2)c(-c2nnn[nH]2)c1)C1(c2cccc(Cl)c2F)CC1 [Example 138, 1-(3-chloro-2-fluorophenyl)-N-{3-(1H-tetrazol-5-yl)-4-[6-(trifluoromethyl)pyridin-3-yl]phenyl} cyclopropane-carboxamide]	51.3	–	102
O=C(Nc1ccc(-c2ccc(C(F)(F)F)nc2)c(-c2nnn[nH]2)c1)C1(c2ccc(F)c(Cl)c2)CC1 [Example 139, 1-(3-chloro-4-fluorophenyl)-N-{3-(1H-tetrazol-5-yl)-4-[6-(trifluoromethyl)pyridin-3-yl]phenyl} cyclopropane-carboxamide]	22.6	–	91
O=C(Nc1ccc(-c2ccc(C(F)(F)F)nc2)c(-c2nnn[nH]2)c1)C1(c2ccc(C(F)(F)F)cc2)CC1 [Example 140, N-{3-(1H-tetrazol-5-yl)-4-[6-(trifluoromethyl)pyridin-3-yl]phenyl}-1-[4-(trifluoromethyl)phenyl] cyclopropane-carboxamide]	42.1	–	85.1
O=C(Nc1ccc(-c2ccc(C(F)(F)F)nc2)c(-c2nnn[nH]2)c1)C1(c2cc(F)ccc2F)CC1 [Example 141, 1-(2,5-difluorophenyl)-N-{3-(1H-tetrazol-5-yl)-4-[6-(trifluoromethyl)pyridin-3-yl]phenyl} cyclopropane-carboxamide]	224	–	141
O=C(Nc1ccc(-c2ccc(C(F)(F)F)nc2)c(-c2nnn[nH]2)c1)C1(c2cccc(C(F)(F)F)c2)CC1 [Example 144, N-{3-(1H-tetrazol-5-yl)-4-[6-(trifluoromethyl)pyridin-3-yl]phenyl}-1-[3-(trifluoromethyl)phenyl] cyclopropane-carboxamide]	300	–	289
COc1cc(-c2ccc(NC(=O)C3(c4ccc(C(F)(F)F)cc4F)CC3)cc2-c2nnn[nH]2)cnc1C(F)(F)F [Example 147, 1-[2-fluoro-4-(trifluoromethyl)phenyl]-N-{4-[5-methoxy-6-(trifluoromethyl)pyridin-3-yl]-3-(1H-tetrazol-5-yl)phenyl} cyclopropane-carboxamide]	35.3	–	36.3
